# Patent US12070458B2, “Therapeutic agent composition and method of use, for treatment of mild congnitive impairment, depression, and psychological disorders” (priority 2018, dated 2024)
# Residues, ends and D or L forms follow the SMILES beside them.
# Assays:
# [1] = tested on: cerebellar microexplants (P4); assay: Glutamate induced neuronal death in cerebellar microexplants (P4); format: cell-based, Wistar rats; settings: for neuron number compared to the normal control group: a further lower dose; for recovery from glutamate-induced neurotoxicity: lower doses 10-100 nM, simultaneously with glutamate
# Method: Cerebellar Cell Culture Preparing and Coating of Cover Slips
# Ten coverslips were placed into a large petri dish and washed in 70% alcohol for 5 minutes, then washed with Millipore H2O. The coverslips were air dried, then coated with Poly-D-Lysine (1 mg/ml stock solution in PBS, 90-100 μl) and incubated for 2 hours at 34° C.
# Postnatal day 4 Wistar rats were used for the study. Rats were placed in ice for 1 minute, the heads were decapitated and the cerebellum removed on ice. Cerebellum tissue was placed in 1 ml of 0.65% glucose supplemented PBS (10 μl 65% stock D (+)glucose/1 ml PBS) in a large petri dish, chopped up into smaller sections and triturate with a 1 ml insulin syringe via a 23 G (0.4 mm) needle, and then squirted back into the glucose solution on the large petri dish. The tissue was sieved through (125 μm pore size gaze) and centrifuged (2 minutes at 60 g) two times for a medium exchange into serum-free BSA-supplemented START V medium (Biochrom). The second centrifugation step was done with 1 ml of START V medium. The microexplants were reconstituted into 500 μl of START V medium and put on ice.
# Cultivation and Fixation of Cerebellar Cells
# Two hours after PDL-coating, the slides were washed with Millipore H2O and air dried. Each slide was placed into a small 35 mm petri dish and 40 μl of START V/cell suspension added. The tissue was incubated for 2 hours at 34° C. (settlement period). START V-medium (1 ml) was then added to the petri dish and cultivated at 34° C./5% CO2/100% humidity for 48 hours. Cells were rinsed in PBS and then fixed for 2-3 minutes in increasing concentrations of paraformaldehyde (500 μl of 0.4% PFA was applied; then 1.2% PFA; then 3% PFA and finally 4% PFA—all fixation solutions contain 0.2% glutardialdehyde). Finally, the microexplants were rinsed in PBS.
# 10 μl of toxin (L-glutamate-100 mM in Millipore water) was applied simultaneously with cPG (from bachem, 10 mM stock prepared in PBS and diluted to final concentrations between 1-100 nM) for Study 1. A delay in administration of cPG at 6 hours after glutamate treatment was performed for Study 2.
# 10 μl of toxin (L-glutamate-100 mM in Millipore water) was applied simultaneously with cyclic(tri(prolylglycyl)) (which was obtained from NeuroBiomed, San Jose, California), 10 mM stock prepared in PBS and diluted to final concentrations between 1-100 nM) for Study 1. A delay in administration of cyclic(tri(prolylglycyl)) at 6 hours after glutamate treatment was performed for Study 2.
# 10 μl of toxin (L-glutamate-100 mM in Millipore water) was applied simultaneously with cyclic Glycyl-2-Methyl Proline (obtained NeuroBiomed, San Jose California), 10 mM stock prepared in PBS and diluted to final concentrations between 1-100 nM) for Study 1. A delay in administration of cPG at 6 hours after glutamate treatment was performed for Study 2.
# [2] = tested on: BrdU positive cells in sub ventricular zone and dentate gyrus; assay: Neurogenesis by BrdU co-administration (sub ventricular zone, dentate gyrus); format: in vivo, Wistar rats; settings: 10 mg/kg i.p. in 0.1% RSA twice daily for 7 days, compared to sham injected
# Method: Male Wistar rats weighing about 250-270 g (not newborn) were used. All animal experiments were conducted in agreement with national and international guidelines. Care was taken to minimize suffering for the animals. Animals were allowed to acclimatize for 1 week before start of the studies. Animals were housed under standardized conditions with normal tight-dark periods and in groups of five animals per cage. Animals had access to food and water ad libitum during the studies.
# Three neurogenesis modulating agents, cPG, c(PG)3 and cGMeP were separately administered intraperitoneally to Male Wistar rats (N=10) at 10 mg/kg in Rat Serum Albumin (RSA). The negative control (n=12), the vehicle group was injected with saline (in 0.1% RSA). Bromodeoxyuridine (Brd1J; 50 mg/kg) was co-administrated together with the compounds. The intraperitoneally injections were given with a 12 hour interval for 7 days. Animals were perfused on day 8. The rats were kept at 12 hours light/dark regime. In perfusion, animals were perfused transcranially with 50 ml of ice cold phosphate buffered saline (PBS) and then 100 ml of 4% paraformaldehyde in PBS. Brains were fixed after removal in 4% paraformaldehyde in PBS for 24 hours at 4° C. at least 3 days before sectioning. The procedures of transcranial infusion consist the following steps: […]
# [3] = 1-100 nM given 6 hours after the glutamate treatment, compared to vehicle
# [4] = administered simultaneously with glutamate, 1-100 nM, glutamate alone 85% loss of neurons
smiles,measurement,setting,value
"O=C1NCC(=O)N2CCC[C@@H]12 [cPG, cyclic Prolyl Glycine]",recovery from glutamate induced neurotoxicity,[1]; [3],significantly recovery
same,neuron number compared to the normal control group,[1],significant increase
same,glutamate induced neuronal death,[1]; [4],significantly reduced
same,recovery from glutamate-induced neurotoxicity,[1],significant recovery
same,number of newborn cells (BrdU positive) in sub ventricular zone and dentate gyrus,[2],significant increase
"O=C1NCC(=O)N2CCC[C@H]2C(=O)NCC(=O)N2CCC[C@H]2C(=O)NCC(=O)N2CCCC12 (stereo partly drawn) [c(PG)3, cyclic (glycyl-L-prolylglycyl-L-prolylglycyl-L-prolyl)] (HELM PEPTIDE1{G.P.G.P.G.[O=C(C1CCCN1[*:1])[*:2]]}$PEPTIDE1,PEPTIDE1,1:R1-6:R2$$$V2.0)","improvement, recovery from glutamate induced neurotoxicity",[1]; [3],approximately 43%
same,neuron number compared to the normal control group,[1],significant increase
same,reduction of glutamate induced neuronal death,[1]; [4],57%
same,recovery from glutamate-induced neurotoxicity,[1],significant recovery
same,number of newborn cells (BrdU positive) in sub ventricular zone and dentate gyrus,[2],significant increase
